Data on one compound can be found in patent US10610529B2, “Trabectedin-inclusive injectable pharmaceutical composition for gastrointestinal external use and a method for manufacturing the same” (priority 2016, dated 2020).

A short description of data set [1]: Measurement of related substances and placement stability of lyophilized formulation (accelerated and long-term conditions). Format: physicochemical. To be noted: API, no storage item given. The method, then: The above intermediate solution was lyophilized to prepare a lyophilized trabectedin formulation. The appearance, water content, reconstitution and pH were investigated. The change of related substances after lyophilization and the placement stability under accelerated conditions (25° C. 60% RH) and long-term conditions (2-8° C.) were measured.
The above lyophilized formulations were stored under accelerated conditions (25° C. 60% RH), and the related substances and water content were measured at different time points.

Data set [2] is described as follows: High-temperature stability of lyophilized products comprising different ratios of glucose/dextran 40. It counts as physicochemical. As to conditions: API, no storage time given.
For data set [3] the following is noted: cited from earlier work.
The conditions of data set [4]: cited from earlier work. This is another data set of the same source.

Where only a bound is given, the exact number is not on record here.

As to `COc1cc2c(cc1O)CCN[C@]21CS[C@@H]2c3c(OC(C)=O)c(C)c4c(c3[C@H](COC1=O)N1[C@@H]2[C@H]2c3c(cc(C)c(OC)c3O)C[C@@H]([C@@H]1O)N2C)OCO4` [API, Trabectedin], in data set [1], the “ET-745 (%)” value is given as 0.25%, the “ET-759B (%)” value turned out to be 0.31% and the “Total impurities (%)” value is on record as 2.56%. Besides, in data set [2], the “ET-745 (%)” value stood at 0.25%, the “ET-759B (%)” value is recorded as 0.31% and the “Total impurities (%)” value came to 2.56%. In addition, the “solubility in pure water” value in data set [3] is given as “limited”. Further, the storage time in data set [4] (refrigerated at 5° C.) was at most 1 month. Moreover, the thermal stability entry in data set [4] (room temperature (25° C.)) is recorded as “rapidly degrades”.
